Patent US4210749A, “Substituted 1,2,4,5-tetrahydro-3H,3 benzazepines” (priority 1979, dated 1980)
Counter-ions that a name gives are not always drawn.

What was measured:
Format in all cases: in vivo
[1] = Narcotic antagonism I.P., Table IV
[2] = I.P. symptomatology (highest tolerated dose, median lethal dose), Table IV; settings: in vivo, ip; for MTD: read-out: HTD (highest tolerated dose)
[3] = Mouse tail stimulation (MST), Table IV; set-up: unit not given here; settings: S.C.
sciatic block = experiment: Local anesthetic sciatic block, Table IV; settings: 1%
[4] = Analgesic activity, writhing method
[5] = Analgesic activity, hot plate method

Structure (SMILES)	Narcotic Antagonism [1]	LD50 [2] [mg/kg]	MTD [2] [mg/kg]	MST (mouse tail stimulation) [3]	Local Anesthetic Sciatic Block (sciatic block)	ED50 ([4]; po) [mg/kg]	ED50 ([5]; ip) [mg/kg]	ED50 ([5]; po) [mg/kg]	Writhing ED50 ([4]; PO) [mg/kg]	Hot Plate ED50 ([5]; IP) [mg/kg]	Hot Plate ED50 ([5]; PO) [mg/kg]	ED50 ([4]; sc) [mg/kg]
COc1ccc2c(c1)CCNCC2 [Example 1, 7-Methoxy-1,2,4,5-tetrahydro-3H,3-benzazepine]	Negative	60	3	> 3	Positive	–	–	–	–	–	–	–
COc1ccc2c3c1O[C@H]1[C@@H](O)C=C[C@H]4[C@@H](C2)N(C)CC[C@@]341 [Codeine, reference compound]	–	–	–	–	–	17	12	20	–	–	–	–
CN1CC[C@]23c4c5ccc(O)c4O[C@H]2[C@@H](O)C=C[C@H]3[C@H]1C5 [Morphine, reference compound]	–	–	–	–	–	–	–	–	3	2.5	14	–
CC(=O)Oc1ccc2c(c1)CCN(CC=C(C)C)CC2 [Example 5, 7-Acetoxy-3-(3,3-dimethylallyl)-1,2,4,5-tetrahydro-3H,3-benzazepine hydrochloride]	Positive	~200	~10	> 30	Positive	–	–	–	–	–	–	–
C=CCN1CCc2ccc(OC)cc2CC1C (centres unmarked) [Example 38, 3-Allyl-8-methoxy-2-methyl-1,2,4,5-tetrahydro-3H,3-benzazepine hydrochloride]	Positive	200	10	> 10	–	–	–	–	–	–	–	–
COc1ccc2c(c1)CC(C)N(CCc1ccccc1)CC2 (centres unmarked) [Example 36, 8-Methoxy-2-methyl-3-phenethyl-1,2,4,5-tetrahydro-3H,3-benzazepine hydrochloride]	Negative	60	10	10	Insoluble	–	–	–	–	–	–	–
CCCN1CCc2ccc(OC)cc2CC1 [Example 22, 7-Methoxy-3-n-propyl-1,2,4,5-tetrahydro-3H,3-benzazepine]	Positive	50	30	–	–	> 316	26	> 316	–	–	–	> 32
COc1ccc2c(c1)CCN(CC1CCCC1)CC2 [Example 12, 3-Cyclopentylmethyl-7-methoxy-1,2,4,5-tetrahydro-3H,3-benzazepine]	–	–	–	–	–	> 178	45	> 178	–	–	–	–
COc1ccc2c(c1)CC(C)N(CCc1ccccc1C)CC2 (centres unmarked) [Example 59, 3-(o-Methylphenethyl)-8-methoxy-2-methyl-1,2,4,5-tetrahydro-3H,3-benzazepine hydrochloride]	Negative	~60	0.3	–	Insoluble	–	–	–	–	–	–	–
C[C@@H]1Cc2ccccc2CCN1C (single isomer, unassigned) [Example 54, (-)-2,3-Dimethyl-1,2,4,5-tetrahydro-3H,3-benzazepine hydrochloride]	Negative	60	3	–	Positive	–	–	–	–	–	–	–
C=CCN1CCc2ccc(O)cc2CC1 [Example 11, 3-Allyl-7-hydroxy-1,2,4,5-tetrahydro-3H,3-benzazepine]	Positive	50	20	–	Positive	> 316	35	> 316	–	–	–	–
CCN1CCc2ccc(OC)cc2CC1 [Example 20, 3-Ethyl-7-methoxy-1,2,4,5-tetrahydro-3H,3-benzazepine]	Negative	60	1	–	Positive	> 125	15	> 125	–	–	–	> 32
Oc1ccc2c(c1)CCN(CC1CCC1)CC2 [Example 9, 3-Cyclobutylmethyl-7-hydroxy-1,2,4,5-tetrahydro-3H,3-benzazepine]	Negative	80	20	–	Positive	–	–	–	–	–	–	–
